Laboratory results published in patent US9796733B2, “Imidazo-pyrazine derivatives useful as soluble guanylate cyclase activators” (Merck Sharp & Dohme Corp., priority 2014, dated 2017).

Tests used:
[1] = tested on: Spontaneously hypertensive rats (SHR); assay: Acute efficacy in spontaneously hypertensive rats (SHR): telemetry blood pressure lowering after a single oral dose; type: in vivo, rat
Source text: Acute Efficacy in Spontaneously Hypertensive Rats (SHR)
Spontaneously hypertensive rats (SHR, male, Charles River) were implanted with DSI TA11PA-C40 telemetry device (Data Sciences, Inc., St. Paul, Minn.) under isoflurane or ketamine/metomidine anesthesia. The telemetry unit catheter was inserted into the descending aorta via the femoral artery and the telemetry device was implanted subcutaneously in the left flank area. Animals were allowed to recover from surgery for 14 days before the start of any studies. Blood pressure, heart rate, and activity signals from conscious, freely moving rats were recorded continuously for 30 seconds every 10 minutes. On the day prior to administration of compound, a single oral dose of vehicle (10% transcutol/20% Cremophor/70% water) was administered to all animals to establish baseline control data. The blood pressure lowering efficacy of compound (PO) or vehicle was evaluated following a single oral gavage. Data were collected as hourly averages, and changes in blood pressure were calculated by subtracting control baseline data on an hourly basis. Animals were maintained on normal diet with a 12 hour light-dark cycle.
Maximum peak decreases of systolic blood pressure (SBP) in SHR at a particular P.O. dose (mpk milligrams per kilogram) for the following representative compounds are provided. Category A=SBP in SHRs<20 mmHg; Category B=SBP in SHRs 20-40 mmHg; Category C=SBP in SHRs>40 mmHg

[2] = molecular target: T1, sGC α1/β1 heterodimer (Homo sapiens, UniProt Q02108+Q02153); assay: Cell-based sGC functional assay (CASA assay): cGMP generation in CHO-K1/sGC cells, HTRF detection; settings: for EC50: inflection point (IP) of cGMP generation in CHO-K1/sGC cells, 4P fit, activity expressed as percentage of Compound A; for Emax: CHO-K1, percent activation relative to standard Compound A in CHO-K1/sGC cells, read-out: % Act.
T1 construct: expressed in transfected cells; host or cells: CHO-K1 (clone #7, CHO-K1/sGC)
T1 sequence (Q02108 1-690): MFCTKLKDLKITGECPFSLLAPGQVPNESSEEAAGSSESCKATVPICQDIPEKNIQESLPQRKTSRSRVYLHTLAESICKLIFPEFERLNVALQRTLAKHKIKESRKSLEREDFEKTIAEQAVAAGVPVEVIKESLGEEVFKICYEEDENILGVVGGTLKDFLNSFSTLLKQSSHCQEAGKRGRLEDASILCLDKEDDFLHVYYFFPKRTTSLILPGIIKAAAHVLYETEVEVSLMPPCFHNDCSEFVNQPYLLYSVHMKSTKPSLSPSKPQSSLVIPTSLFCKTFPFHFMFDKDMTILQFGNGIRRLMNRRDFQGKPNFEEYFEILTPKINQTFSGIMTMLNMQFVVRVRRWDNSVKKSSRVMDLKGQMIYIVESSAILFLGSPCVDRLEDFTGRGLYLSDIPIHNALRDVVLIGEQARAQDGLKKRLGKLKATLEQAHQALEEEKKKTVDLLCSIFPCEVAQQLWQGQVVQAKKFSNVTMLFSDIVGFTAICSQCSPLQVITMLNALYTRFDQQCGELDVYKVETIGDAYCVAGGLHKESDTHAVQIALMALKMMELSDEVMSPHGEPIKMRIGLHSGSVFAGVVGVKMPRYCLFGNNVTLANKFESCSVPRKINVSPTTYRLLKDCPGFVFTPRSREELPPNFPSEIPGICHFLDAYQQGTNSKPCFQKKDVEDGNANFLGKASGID
T1 sequence (Q02153 1-619): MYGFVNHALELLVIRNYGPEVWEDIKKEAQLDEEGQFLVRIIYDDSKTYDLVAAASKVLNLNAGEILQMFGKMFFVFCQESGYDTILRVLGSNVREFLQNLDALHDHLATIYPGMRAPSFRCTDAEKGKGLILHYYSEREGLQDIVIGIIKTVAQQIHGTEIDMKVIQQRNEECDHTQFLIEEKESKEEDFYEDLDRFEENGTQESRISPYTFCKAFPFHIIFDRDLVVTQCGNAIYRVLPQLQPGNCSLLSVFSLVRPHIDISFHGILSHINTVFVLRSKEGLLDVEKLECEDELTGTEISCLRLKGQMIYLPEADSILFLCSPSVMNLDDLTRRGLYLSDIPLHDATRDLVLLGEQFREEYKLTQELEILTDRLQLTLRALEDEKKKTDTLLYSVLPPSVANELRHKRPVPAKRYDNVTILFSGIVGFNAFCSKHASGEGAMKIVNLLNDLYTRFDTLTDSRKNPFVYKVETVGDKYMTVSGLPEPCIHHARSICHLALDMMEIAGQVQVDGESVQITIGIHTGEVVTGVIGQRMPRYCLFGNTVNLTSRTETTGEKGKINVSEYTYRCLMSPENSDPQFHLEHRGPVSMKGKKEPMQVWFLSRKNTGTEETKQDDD
Outline: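 cGMP was quantified by HTRF after 1 hr, 37° C exposure of thawed CHO-K1 cells expressing sGC α1/β1 to compound, with or without 1 μM DETA-NO. IBMX (0.5 mM) blocked cGMP breakdown, and DMSO was 2.5% final. Percent of standard Compound A's maximal cGMP was fitted (4P) for inflection point.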

| Structure (SMILES) | EC50 [2] [nM] | % Act. ([2]; percent activation relative to standard Compound A in CHO-K1/sGC cells) [%] | Emax [2] [%] | Maximum peak decrease of systolic blood pressure (SBP) in SHR, Cat. ([1]; P.O. 0.3 mpk) | Maximum peak decrease of systolic blood pressure (SBP) in SHR, Cat. ([1]; P.O. 3.0 mpk) | Maximum peak decrease of systolic blood pressure (SBP) in SHR, Cat. ([1]; P.O. 1.0 mpk) |
| --- | --- | --- | --- | --- | --- | --- |
| CC1(c2ccc(F)cc2)C(=O)Nc2nc(-c3cn4ccnc4c(CCC(F)(F)C(F)(F)F)n3)nc(N)c21 (single isomer, unassigned) [Example 68A, 4-Amino-5-(4-fluorophenyl)-5-methyl-2-(8-(3,3,4,4,4-pentafluorobutyl)imidazo[1,2-a]pyrazin-6-yl)-5H-pyrrolo[2,3-d]pyrimidin-6(7H)-one] | 37 | 112 |  | C (Category C=SBP in SHRs>40 mmHg) |  |  |
| CCCc1nc(-c2nc(N)c3c(n2)NC(=O)C3(c2ccc(Cl)cc2)C2CC2)cn2ccnc12 (stereo not drawn) [Example 26B, 4-amino-5-(4-chlorophenyl)-5-cyclopropyl-2-(8-propylimidazo[1,2-a]pyrazin-6-yl)-5H-pyrrolo[2,3-d]pyrimidin-6(7H)-one] | 253 |  | 81 |  | B (Category B=SBP in SHRs 20-40 mmHg) |  |
| CC1(c2ccc(Cl)cc2F)C(=O)Nc2nc(-c3cn4ccnc4c(CCC(F)(F)F)n3)nc(N)c21 (stereo not drawn) [Example 179A, 4-amino-5-(4-chloro-2-fluorophenyl)-5-methyl-2-(8-(3,3,3-trifluoropropyl)imidazo[1,2-a]pyrazin-6-yl)-5H-pyrrolo[2,3-d]pyrimidin-6(7H)-one] | 45 |  | 129 |  |  | C (Category C=SBP in SHRs>40 mmHg) |
| CCCc1nc(-c2nc(N)c3c(n2)NC(=O)C3(C)c2ccc(C(F)(F)F)cn2)cn2ccnc12 (stereo not drawn) [Example 132B, 4-amino-5-methyl-2-(8-propylimidazo[1,2-a]pyrazin-6-yl)-5-(5-(trifluoromethyl)pyridin-2-yl)-5H-pyrrolo[2,3-d]pyrimidin-6(7H)-one] | 949 |  | 99 |  | B (Category B=SBP in SHRs 20-40 mmHg) |  |
| COc1cn2cc(-c3nc(N)c4c(n3)NC(=O)C4(C)c3ccc(F)cc3)nc(CCC(F)(F)C(F)(F)F)c2n1 (stereo not drawn) [Example 174A, 4-amino-5-(4-fluorophenyl)-2-(2-methoxy-8-(3,3,4,4,4-pentafluorobutyl)imidazo [1,2-a]pyrazin-6-yl)-5-methyl-5H-pyrrolo[2,3-d]pyrimidin-6(7H)-one] | 107 |  | 139 |  |  | B (Category B=SBP in SHRs 20-40 mmHg) |
| Cc1nnc(C2(C)C(=O)Nc3nc(-c4cn5ccnc5c(Cc5ccc(F)cc5)n4)nc(N)c32)s1 (stereo not drawn) [Example 33A, 4-amino-2-(8-(4-fluorobenzyl)imidazo[1,2-a]pyrazin-6-yl)-5-methyl-5-(5-methyl-1,3,4-thiadiazol-2-yl)-5H-pyrrolo[2,3-d]pyrimidin-6(7H)-one] | 129 |  | 135 |  |  | B (Category B=SBP in SHRs 20-40 mmHg) |
| Nc1nc(-c2cn3cc(C(F)(F)F)nc3c(Cc3ccccc3F)n2)nc2c1C(C(=O)NC1CC1)(C1CC1)C(=O)N2 (stereo not drawn) [Example 45A, 4-amino-N,5-dicyclopropyl-2-(8-(2-fluorobenzyl)-2-(trifluoromethyl)imidazo[1,2-a]pyrazin-6-yl)-6-oxo-6,7-dihydro-5H-pyrrolo[2,3-d]pyrimidine-5-carboxamide] | 668 |  | 86 |  |  |  |
| CC1(c2ccc(OC(F)(F)F)cc2)C(=O)Nc2nc(-c3cn4ccnc4c(CCC(F)(F)F)n3)nc(N)c21 (stereo not drawn) [Example 196B, 4-amino-5-methyl-5-(4-(trifluoromethoxy)phenyl)-2-(8-(3,3,3-trifluoropropyl)imidazo[1,2-a]pyrazin-6-yl)-5H-pyrrolo[2,3-d]pyrimidin-6(7H)-one] | 267 |  | 106 |  |  |  |

Further lines, with some results ahead:

| EC50 [2] [nM] | % Act. ([2]; percent activation relative to standard Compound A in CHO-K1/sGC cells) [%] | Emax [2] [%] | Structure (SMILES) | Maximum peak decrease of systolic blood pressure (SBP) in SHR, Cat. ([1]; P.O. 0.3 mpk) | Maximum peak decrease of systolic blood pressure (SBP) in SHR, Cat. ([1]; P.O. 3.0 mpk) | Maximum peak decrease of systolic blood pressure (SBP) in SHR, Cat. ([1]; P.O. 1.0 mpk) |
| --- | --- | --- | --- | --- | --- | --- |
| 53 |  | 124 | Nc1nc(-c2cn3ccnc3c(CCCC(F)(F)F)n2)nc2c1C(c1ccc(C(F)(F)F)cn1)(C1CC1)C(=O)N2 (stereo not drawn) [Example 219A, 4-amino-5-cyclopropyl-2-(8-(4,4,4-trifluorobutyl)imidazo[1,2-a]pyrazin-6-yl)-5-(5-(trifluoromethyl)pyridin-2-yl)-5H-pyrrolo[2,3-d]pyrimidin-6(7H)-one] |  |  | B (Category B=SBP in SHRs 20-40 mmHg) |
| 13 |  | 109 | CCCCc1nc(-c2nc(N)c3c(n2)NC(=O)C3(c2ccc(Cl)cc2F)C2CC2)cn2ccnc12 (stereo not drawn) [Example 369A, 4-amino-2-(8-butylimidazo[1,2-a]pyrazin-6-yl)-5-(4-chloro-2-fluorophenyl)-5-cyclopropyl-5H-pyrrolo[2,3-d]pyrimidin-6(7H)-one] | B (Category B=SBP in SHRs 20-40 mmHg) |  |  |
| 239 |  | 123 | CC1(c2ccc(F)cc2)C(=O)Nc2nc(-c3cn4c(Br)cnc4c(CCC(F)(F)F)n3)nc(N)c21 (stereo not drawn) [Example 264A, 4-amino-2-(3-bromo-8-(3,3,3-trifluoropropyl)imidazo[1,2-a]pyrazin-6-yl)-5-(4-fluorophenyl)-5-methyl-5H-pyrrolo[2,3-d]pyrimidin-6(7H)-one] |  |  | A (Category A=SBP in SHRs<20 mmHg) |
| 61 |  | 81 | CC1(c2ccc(F)cc2)C(=O)Nc2nc(-c3cn4c(C#N)cnc4c(CCC(F)(F)C(F)(F)F)n3)nc(N)c21 (stereo not drawn) [Example 273A, 6-(4-Amino-5-(4-fluorophenyl)-5-methyl-6-oxo-6,7-dihydro-5H-pyrrolo[2,3-d]pyrimidin-2-yl)-8-(3,3,4,4,4-pentafluorobutyl)imidazo[1,2-3a]pyrazine-3-carbonitrile] |  |  |  |
| 35 |  | 181 | CC(F)(F)c1ccc(C2(C)C(=O)Nc3nc(-c4cn5ccnc5c(CCCC(F)(F)F)n4)nc(N)c32)cn1 (single isomer, unassigned) [Example 380B, 4-amino-5-(6-(1,1-difluoroethyl)pyridin-3-yl)-5-methyl-2-(8-(4,4,4-trifluorobutyl)imidazo[1,2-a]pyrazin-6-yl)-5H-pyrrolo[2,3-d]pyrimidin-6(7H)-one] |  |  |  |
| 249 |  | 111 | CC1(c2ccc(C3CC3)cn2)C(=O)Nc2nc(-c3cn4ccnc4c(CCC(F)(F)C(F)(F)F)n3)nc(N)c21 (stereo not drawn) [Example 227B, 4-amino-5-(5-cyclopropylpyridin-2-yl)-5-methyl-2-(8-(3,3,4,4,4-pentafluorobutyl)imidazo [1,2-a]pyrazin-6-yl)-5H-pyrrolo[2,3-d]pyrimidin-6(7H)-one] |  |  |  |
| 1210 |  | 83 | Cn1nnnc1C1(C2CC2)C(=O)Nc2nc(-c3cn4ccnc4c(CCC(F)(F)C(F)(F)F)n3)nc(N)c21 (single isomer, unassigned) [Example 325A, 4-amino-5-cyclopropyl-5-(1-methyl-1H-tetrazol-5-yl)-2-(8-(3,3,4,4,4-pentafluorobutyl)imidazo[1,2-a]pyrazin-6-yl]-5H-pyrrolo[2,3-d]pyrimidin-6(7H)-one] |  |  |  |
